In experiment [1] the test system is ΔPHO13 strain (S. cerevisiae BY4741X with PHO13 deleted). Format: cell-based. The following applies: for amount of production of ethanol: 80 g/L xylose. The source says:
(§1) A solution obtained by incorporating 80 g/L of xylose into a YP medium (containing 1% of a yeast extract, 2% of peptone, and 0.5% of […]) was used as a material using xylose as a carbon source. […]

In another experiment the test system is BY4741X strain (control). The experiment in a line: Fermentation with xylose as carbon source by the control strain in the presence of a fermentation inhibitor. Format: cell-based, S. cerevisiae. The following applies: 72 hours.
Source text: as §1

In a further experiment the test system is S. cerevisiae MN8140X. As to conditions: 100 mM of acetic acid. From the text:
A medium formed of 10 g/L of a yeast extract, 20 g/L of polypeptone, 80 g/L of glucose, and 60 g/L of xylose was used as the solution using glucose and xylose as carbon sources.

The mark [2] stands for this setting: 60 mM of furfural versus no furfural, 72 hours.
The mark [3] stands for this setting: 90 mM of furfural, after 24 hours.
[4] abbreviates: 90 mM of furfural, after 72 hours.
Setting [5] is: 60 mM of acetic acid, after 24 hours.
Where [6] appears, read: 60 mM of acetic acid, after 72 hours.
[7] abbreviates: 30 mM of formic acid, after 24 hours.
Where [8] appears, read: 30 mM of formic acid, after 72 hours.

Structures are written as SMILES. Read-outs that look alike come from different tables or passages of the source.

In the case of `O=Cc1ccco1` [furfural], the “resistance of the strain to the fermentation inhibitor in ethanol production using xylose as a carbon source” value in experiment [1] is listed as “resistant”. In experiment [1] (setting [2]), the “consumption rate of xylose” value is reported as “substantially the same as that in the case where furfural was not incorporated” and the ethanol-producing ability result is recorded as “effective ethanol production was similarly observed”. In addition, in experiment [1] (setting [3]), the “amount of production of ethanol relative to control (BY4741X strain)” value was determined as 27.5 times and the “amount of production of ethanol” value came to 21 g/L. Moreover, in experiment [1] (setting [4]), the “amount of production of ethanol relative to control (BY4741X strain)” value came out at 5.5 times and the “amount of production of ethanol” value was found to be 31 g/L. The “consumption rate of xylose” value in the experiment on BY4741X strain (control) (furfural 60 and 90 mM versus 0 mM) is reported as “reduced”.
In the case of `CC(=O)O` [acetic acid], in the experiment with S. cerevisiae MN8140X, the “action in ethanol production by the yeast” value is given as “showed a fermentation inhibitory action”. Further, the “amount of production of ethanol” value with S. cerevisiae MN8140X (fermentation 48 hours, 30° C.) is on record as “also suppressed”; in experiment [1] (setting [5]) it was 13 g/L; in experiment [1] (setting [6]), 20 g/L. Also, in the experiment with S. cerevisiae MN8140X (fermentation 48 hours, 30° C.), the “consumption of glucose as a carbon source” value is recorded as “suppressed”. Further, the “resistance of the strain to the fermentation inhibitor in ethanol production using xylose as a carbon source” value in experiment [1] was “resistant”. The “amount of production of ethanol relative to control (BY4741X strain)” value in experiment [1] (setting [5]) was 2.3 times; in experiment [1] (setting [6]) it was 1.4 times. Further, the “consumption rate of xylose” value in experiment [1] (acetic acid 0, 30 and 60 mM, 72 hours) is on record as “reduced depending on an acetic acid concentration”; in the experiment on BY4741X strain (control) (acetic acid 0, 30 and 60 mM), “reduced depending on an acetic acid concentration”.
With `O=CO` [formic acid], the “resistance of the strain to the fermentation inhibitor in ethanol production using xylose as a carbon source” value in experiment [1] was “resistant”. Further, the “amount of production of ethanol relative to control (BY4741X strain)” value was 4.1 times in experiment [1] (setting [7]) and 5.5 times in experiment [1] (setting [8]). The “amount of production of ethanol” value amounted to 6 g/L in experiment [1] (setting [7]) and 11 g/L in experiment [1] (setting [8]). Further, the “xylose consumption and ethanol production versus inhibitor concentration” value in experiment [1] (formic acid 0, 15 and 30 mM, 72 hours) is “a tendency similar to that in the case of acetic acid was observed”.
